Measured values: PubChem BioAssay (NCI)
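These data come from cells grown in 96-well plates and exposed to compound for 48 hours at five concentrations. TGI is the concentration that stops growth completely.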

What was measured:
Assay in all cases: inhibition of tumour cell growth, NCI panel, 48 h
MDA-MB-435 = test system: MDA-MB-435
COLO 205 colon = test system: COLO 205 colon
TK-10 renal = test system: TK-10 renal
PC-3 prostate = test system: PC-3 prostate
MCF7 breast = test system: MCF7 breast
BT-549 breast = test system: BT-549 breast
EKVX NSCLC = test system: EKVX NSCLC
A549 NSCLC = test system: A549 NSCLC
K-562 leukemia = test system: K-562 leukemia
M14 melanoma = test system: M14 melanoma
DU-145 prostate = test system: DU-145 prostate
OVCAR-3 ovarian = test system: OVCAR-3 ovarian
SN12C renal = test system: SN12C renal
NCI-H460 lung = test system: NCI-H460 lung
MDA-MB-231 breast = test system: MDA-MB-231 breast
T-47D breast = test system: T-47D breast
SF-295 CNS = test system: SF-295 CNS
UO-31 renal = test system: UO-31 renal
U251 CNS = test system: U251 CNS
HCC-2998 colon = test system: HCC-2998 colon
CAKI-1 renal = test system: CAKI-1 renal
RPMI-8226 leukemia = test system: RPMI-8226 leukemia
HT29 colon = test system: HT29 colon
SK-MEL-5 melanoma = test system: SK-MEL-5 melanoma
SF-268 CNS = test system: SF-268 CNS
A498 renal = test system: A498 renal
SNB-19 CNS = test system: SNB-19 CNS
OVCAR-8 ovarian = test system: OVCAR-8 ovarian
SR leukemia = test system: SR leukemia
LOX IMVI melanoma = test system: LOX IMVI melanoma
ACHN renal = test system: ACHN renal
IGROV1 ovarian = test system: IGROV1 ovarian
OVCAR-5 ovarian = test system: OVCAR-5 ovarian
SF-539 CNS = test system: SF-539 CNS
NCI-H226 lung = test system: NCI-H226 lung
KM12 colon = test system: KM12 colon
SK-MEL-2 melanoma = test system: SK-MEL-2 melanoma
HOP-92 NSCLC = test system: HOP-92 NSCLC
MOLT-4 leukemia = test system: MOLT-4 leukemia
SK-MEL-28 melanoma = test system: SK-MEL-28 melanoma
NCI-H522 lung = test system: NCI-H522 lung
SNB-75 CNS = test system: SNB-75 CNS
786-0 renal = test system: 786-0 renal
OVCAR-4 ovarian = test system: OVCAR-4 ovarian
SW-620 colon = test system: SW-620 colon
NCI/ADR-RES ovarian = test system: NCI/ADR-RES ovarian
UACC-257 melanoma = test system: UACC-257 melanoma
SK-OV-3 ovarian = test system: SK-OV-3 ovarian
HL-60(TB) leukemia = test system: HL-60(TB) leukemia
HCT-15 colon = test system: HCT-15 colon
UACC-62 melanoma = test system: UACC-62 melanoma
HOP-62 NSCLC = test system: HOP-62 NSCLC
HS 578T breast = test system: HS 578T breast
HCT-116 colon = test system: HCT-116 colon
MALME-3M melanoma = test system: MALME-3M melanoma
NCI-H23 lung = test system: NCI-H23 lung
CCRF-CEM leukemia = test system: CCRF-CEM leukemia

Measured: TGI

COC(=O)CN(CC1O[C@@H]2OC(C)(C)O[C@@H]2C1N=[N+]=[N-])C(=O)OCc1ccccc1 (some centres undefined)
not listed: MALME-3M melanoma | NCI-H23 lung | CCRF-CEM leukemia
> 100 µM: all other assays above

CC(=O)OC1C2CCC1C1C2N=NN1c1ccc([N+](=O)[O-])cc1 (centres undefined)
not listed: K-562 leukemia | CAKI-1 renal
> 100 µM: all other assays above
